According to ChEMBL document CHEMBL5724696, “Autophagy assay results for EUbOPEN Chemogenomics Library” (2024):

Legend:
Assay type in all cases: functional, Homo sapiens
[1] = system: TERT-RPE1; assay: (§1) Here: values are normalized to the negative (DMSO; defined as 0% autophagy induction) and positive (250nM Torin1; mTOR inhibitor; defined as maximal inducer of autophagy = 100%) control compounds and represented as % of autophagy induction. […] The impact of autophagy induction on cells is complex and depends on the affected target. As such, the magnitude of a phenotype may not be equally mirrored in the %-value of autophagy induction and vice versa. The dynamics of the induction may indicate the mode of activation: e.g. activation via phosphorylation or a signaling cascade may occur fast, while activation via transcription factors may take considerably longer. […] Of note, treatment concentrations may be sub-optimal for specific compounds, leading to false negative annotations.; conditions: Culturing Media DMEM/F12 (1:1), 1 % Penicillin/Streptomycin, 10% Fetal bovin serum Add-On: No, Screening Media Control DMEM/F12 (1:1), Screening Media Samples DMEM/F12 (1:1)
[2] = system: U2OS; assay: as §1; conditions: Culturing Media DMEM, 1 % Penicillin/Streptomycin, 10% Fetal bovin serum Add-On: No, Screening Media Control DMEM, Screening Media Samples DMEM
[3] = system: U2OS; assay: as §1; conditions: Culturing Media DMEM, 1 % Penicillin/Streptomycin, 10% Fetal bovin serum Add-On: No, Screening Media Control DMEM, Screening Media Samples DMEM; remark: listed apart in the source
[4] = Compound Concentration 0.5 uM, Timepoint 12 hours
[5] = Compound Concentration 0.5 uM, Timepoint 24 hours
[6] = Compound Concentration 0.5 uM, Timepoint 36 hours
[7] = Compound Concentration 0.5 uM, Timepoint 60 hours
[8] = Compound Concentration 2 uM, Timepoint 12 hours
[9] = Compound Concentration 2 uM, Timepoint 24 hours
[10] = Compound Concentration 2 uM, Timepoint 36 hours
[11] = Compound Concentration 2 uM, Timepoint 60 hours
[12] = Compound Concentration 10 uM, Timepoint 12 hours
[13] = Compound Concentration 10 uM, Timepoint 24 hours
[14] = Compound Concentration 10 uM, Timepoint 36 hours
[15] = Compound Concentration 10 uM, Timepoint 60 hours

Cc1c(P(=S)(c2ccccc2)c2ccccc2)n2ccccc2[n+]1C/C=C/c1ccccc1.[Br-]
autophagy induction [1, 4]: -3.105%
autophagy induction [1, 5]: -8.592%
autophagy induction [1, 6]: -12.0302%
autophagy induction [1, 7]: -17.0508%
autophagy induction [1, 8]: 2.878%
autophagy induction [1, 9]: -0.5859%
autophagy induction [1, 10]: 1.195%
autophagy induction [1, 11]: -1.818%
autophagy induction [1, 12]: 24.7841%
autophagy induction [1, 13]: 51.8106%
autophagy induction [1, 14]: 73.7567%
autophagy induction [1, 15]: 96.4076%
autophagy induction [2, 4]: -4.037%
autophagy induction [2, 5]: -2.741%
autophagy induction [2, 6]: -2.914%
autophagy induction [2, 7]: -1.509%
autophagy induction [2, 8]: -1.2597%
autophagy induction [2, 9]: -1.1621%
autophagy induction [2, 10]: -2.341%
autophagy induction [2, 11]: -2.536%
autophagy induction [2, 12]: -27.5654%
autophagy induction [2, 13]: -9.802%
autophagy induction [2, 14]: -1.3311%
autophagy induction [2, 15]: 3.649%
autophagy induction [3, 4]: -3.655%
autophagy induction [3, 5]: 0.9546%
autophagy induction [3, 6]: -1.282%
autophagy induction [3, 7]: 2.215%
autophagy induction [3, 8]: -8.9%
autophagy induction [3, 9]: -2.047%
autophagy induction [3, 10]: 1.308%
autophagy induction [3, 11]: 3.722%
autophagy induction [3, 12]: 47.8904%
autophagy induction [3, 13]: 55.2067%
autophagy induction [3, 14]: 55.7211%
autophagy induction [3, 15]: 73.829%

N#Cc1cccc(C(=O)Nc2cc(-c3ccccc3)nn2-c2ccccc2)c1
autophagy induction [1, 4]: -7.699%
autophagy induction [1, 5]: -6.069%
autophagy induction [1, 6]: 3.327%
autophagy induction [1, 7]: 19.4837%
autophagy induction [1, 8]: -8.111%
autophagy induction [1, 9]: -9.075%
autophagy induction [1, 10]: -9.172%
autophagy induction [1, 11]: -3.858%
autophagy induction [1, 12]: -3.603%
autophagy induction [1, 13]: -4.896%
autophagy induction [1, 14]: -4.571%
autophagy induction [1, 15]: -1.999%
autophagy induction [2, 4]: -5.641%
autophagy induction [2, 5]: -2.328%
autophagy induction [2, 6]: -2.122%
autophagy induction [2, 7]: -3.431%
autophagy induction [2, 8]: 0.2801%
autophagy induction [2, 9]: -3.069%
autophagy induction [2, 10]: -2.148%
autophagy induction [2, 11]: -2.332%
autophagy induction [2, 12]: -0.7756%
autophagy induction [2, 13]: -1.607%
autophagy induction [2, 14]: -0.5457%
autophagy induction [2, 15]: -0.9476%
autophagy induction [3, 4]: 0.2338%
autophagy induction [3, 5]: 1.876%
autophagy induction [3, 6]: 9.199%
autophagy induction [3, 7]: 8.756%
autophagy induction [3, 8]: -6.937%
autophagy induction [3, 9]: -1.593%
autophagy induction [3, 10]: 2.3802%
autophagy induction [3, 11]: -5.115%
autophagy induction [3, 12]: 0.7229%
autophagy induction [3, 13]: 5.625%
autophagy induction [3, 14]: -1.742%
autophagy induction [3, 15]: -2.793%

Cc1cn2cc(CC(=O)N3CCC4(CC3)CN(Cc3ccc(-n5nccn5)cc3Cl)C4)nc2s1
autophagy induction [1, 4]: -2.947%
autophagy induction [1, 5]: -6.082%
autophagy induction [1, 6]: -10.2542%
autophagy induction [1, 7]: -15.5621%
autophagy induction [1, 8]: -4.023%
autophagy induction [1, 9]: -6.112%
autophagy induction [1, 10]: -7.965%
autophagy induction [1, 11]: -11.2776%
autophagy induction [1, 12]: 6.864%
autophagy induction [1, 13]: 5.224%
autophagy induction [1, 14]: 5.8937%
autophagy induction [1, 15]: 9.679%
autophagy induction [2, 4]: 1.123%
autophagy induction [2, 5]: -3.762%
autophagy induction [2, 6]: -1.928%
autophagy induction [2, 7]: -1.19%
autophagy induction [2, 8]: -4.678%
autophagy induction [2, 9]: -1.951%
autophagy induction [2, 10]: -1.585%
autophagy induction [2, 11]: -1.336%
autophagy induction [2, 12]: -3.342%
autophagy induction [2, 13]: -3.411%
autophagy induction [2, 14]: -3.208%
autophagy induction [2, 15]: -4.891%
autophagy induction [3, 4]: -19.4257%
autophagy induction [3, 5]: -11.2688%
autophagy induction [3, 6]: -14.8033%
autophagy induction [3, 7]: -9.0407%
autophagy induction [3, 8]: 2.217%
autophagy induction [3, 9]: 1.46%
autophagy induction [3, 10]: 0.9512%
autophagy induction [3, 11]: 5.325%
autophagy induction [3, 12]: -2.971%
autophagy induction [3, 13]: 3.988%
autophagy induction [3, 14]: 2.68%
autophagy induction [3, 15]: 3.422%
